Measured values reported in patent US12678425B2, “Methods for treating against viruses” (Howard University, priority 2019, dated 2026).

Tests used:
[1] = tested on: HSV-1 strain 17; assay: Plaque formation unit (pfu) assay in HEp-2 cells
Description: The viral plaque assay was performed as previously described (Tang et al. “Determination of minimum herpes simplex virus type 1 components necessary to localize transcriptionally active DNA to ND10,” J. Virol. 2003; 77:5821-28), with slight modifications. The HSV-1 strain 17 was diluted serially in a volume of 1 mL. Then 300 ul of the virus was added onto confluent HEp-2 cell monolayers in 12-well plates; each dilution had 3 wells. After adsorption for 2 h, the medium was removed and the cells were washed twice with serum-free DMEM and overlaid with phenol-free DMEM containing 5% FCS, 0.5% low-melting point agarose (GIBCO), and 1% penicillin-streptomycin. The cells were incubated at 370 C for 48 hours. Neutral red was added on the agarose to stain the live cells. The plaques were counted and reported as pfu per mL. Mean pfu was determined after averaging the number of pfu from different dilutions.

[2] = tested on: HEp-2 cells; assay: Trypan blue exclusion cell viability; type: cell-based; settings: 24-hour treatment
Description: In order to assess whether the compounds are producing any toxicity that can led to the cell deaths, we evaluated the cell viability by the trypan blue exclusion method. As long-term inhibition of RACK1 expression has been reported to cell cycle arrest, we limited our experimental treatments to 24 h and evaluated the cell viability of almost full confluent cells after 24 h of compound treatment.
In table 2, the viability of cells was measured with Trypan blue exclusion assay in a Cellometer (Nexcelom, Lawrence, MA). The percentage survival of the compound treated cells was evaluated along with the DMSO treated cells. The values represent the mean f SE of three separate well based replicates.

[3] = tested on: Human Annexin A2; assay: LC-MS of Annexin A2 abundance after compound treatment; type: cell-based; design: Annexin A2 fragment abundance: reference not given here; settings: for Abundance ratio 1: SD29-14 over DMSO (10 uM); for Abundance ratio 2: SD29-14 over DMSO (100 uM)
Description: To further confirm this mechanism of action, LC-MS (Liquid Chromatography-Mass Spectrometry) was conducted to determine the effect of RACK1 inhibition on ANXA2 expression.

[4] = tested on: HSV-1; assay: Protection from HSV-1 cytopathic effect in HEp-2 cells (microscopy); type: cell-based; settings: different concentrations, 24 h
Description: FIG. 15 depicts the results of in vitro testing to confirm the protective effect of a representative compound (SD-29-14) from the cytopathic effect caused by HSV-1. […] After washing away the virus with PBS, images were taken under a compound microscope.

[5] = tested on: HSV-1 ICP0 protein; assay: Immunofluorescence and confocal microscopy of ICP0 in Hep-2 cells; type: cell-based; settings: 10 μM, HSV-1 MOI 1.0, 30 h
Description: The HEp-2 cells were infected with HSV-1 at an MOI of 1.0 for 30 h along with the indicated compounds and control. The cells were fixed with 4% paraformaldehyde and stained with anti-ICPO-FITC in green and DAPI (blue for DNA label in the nucleus). The slides were observed under a Nikon confocal microscope (60× magnification lens) and pictures were taken to show infected cells (green) and total cells (DAPI). All scale bars correspond to 20 μm. The imaging experiments were performed three independent times, and the results as shown are representative of one of three experiments.
Hep-2 cells were grown to about 80% confluency in 12 well plate and the cells were co-infected with HSV-1 at an MOI of 1.0 for 30 h along with the indicated inhibitor compounds and control. The cells were fixed at room temperature with 4% paraformaldehyde-PBS for 15 minutes and then permeabilized at room temperature by 0.5% Triton X-100-PBS (pH 7.4) for 10 min. The cells were then washed 3× with Ice cold PBS. The cells were incubated with 1% BSA, 22.52 mg/mL glycine in PBST (PBS+0.1% Tween 20) for 30 min to block unspecific binding of the antibodies. The cells were incubated in the 1:500 diluted anti-ICP0 antibody in 1% BSA in PBST in a humidified chamber overnight at 4° C. […]

[6] = tested on: RACK1A Y248 phosphorylation; assay: Immunoblot of ABA-induced RACK1A Y248 phosphorylation in seedlings; type: cell-based, Arabidopsis; settings: 10 μM ABA, 12 hours
[7] = tested on: Hep-2 cells infected with HSV-1; assay: Fluorescence cell sort in Cellometer, HSV-1 infected Hep-2 cells; type: cell-based, human; settings: 24-h incubation, HSV-1 MOI 1.0
Description: FIG. 13 depicts the quantification of fluorescent cells by Image based cell sorting in a Cellometer (Nexcelom Vision), based on the experiments depicted in FIG. 12. […] The cells were prepared by immunostaining with ICP0 antibody after 24-h incubation with the indicated compounds. The total cell counts were 1.01×10^6/ml, 4.69×10^6/ml, and 5.36×10^6/ml for DMSO, SD29-14 (10 μM), and SD29-14 (100 μM) respectively. The numbers show the mean f SE of three replicates.
Fluorescence Cell Sort: Hep-2 cells were grown to about 80% confluency in T25 Cell culture flask and were co-infected with HSV-1 at a MOI of 1.0 for 24 h along with the indicated inhibitor compounds and control. After trypsinization, the cells were fixed in 4% paraformaldehyde-PBS. The cells were treated in the same method as described in the immunofluorescence and confocal microscopy method section. The labeled cells were counted in a Nexcelom Vision Cellometer equipped with Brightfield & 2 Fluorescence Channels Filter Set 101: Excitation/Emission Peak: 475 nm/535 nm and Filter Set 202: Excitation/Emission Peak: 525 nm/595 nm. […] Bright-field and fluorescent images were then captured and analyzed at four different locations by the Cellometer image analysis software to directly determine the cell concentration of fluorescently labelled cells. […]

[8] = tested on: RACK1 protein expression; assay: Immunoblot of RACK1 expression under salt stress
Description: The abundant leaf protein Rubisco large subunit (RbcL) was used as a loading control for the blot.
As the antibody cross-reacts with all three RACK1 isoforms in Arabidopsis, we used the double knockout (rack1ab) as a negative control on the blot (triple mutant is lethal at the early seedling stage). The large subunit of the abundant leaf protein rubisco (RbcL) was used as loading control for this blot.

[9] = tested on: HSV-1 proteins (ICP0, ICP8, gD); assay: Western blot of HSV-1 proteins in pre-treated HEp-2 cells; type: cell-based; settings: 100 μM, 24 hours pre-treatment, 24 h post infection
Description: (§1) Panel A of FIG. 8 depicts time and concentration dependent virus protein expression to deduce an optimum drug treatment regimen. […] Tubulin expression was used as the loading control for the blots.
(§2) Proteins were separated by SDS-PAGE (25 μg loaded in each lane), transferred to nitrocellulose membranes (Amersham Inc., Piscataway, NJ, USA), and blocked with 5% nonfat milk for 60 min at room temperature. Membranes were incubated overnight at 4° C. with primary antibody, followed by incubation with a horseradish peroxidase-coupled secondary antibody and detection with enhanced chemiluminescence (Pierce, Rockford, IL, USA), according to standard methods. Membranes were stripped with stripping buffer (100 mM 2-mercaptoethanol, 2% SDS, 62.5 mM Tris-HCl, pH 6.8), washed with PBS-0.1% Tween-20, and used to detect additional proteins. For Arabidopsis lysates one-week old seedlings were treated with 10 uM of ABA in the presence/absence of the inhibitor compounds for 12 hours in a growth chamber (overnight) at 22° C. mostly in the dark. Lysates were isolated in lysis buffer (Cell Signaling, Danvers, MA) supplemented with plant protease inhibitor (Sigma-Aldrich), phosphatase inhibitor cocktail A and B (Santa Cruz Biotechnology, Dallas, TX), and N-Ethylamaleimide (Sigma-Aldrich, St. Louis, MO). […]

[10] = target: T1, RACK1 (Homo sapiens, UniProt P63244); assay: Western blot of RACK1 in pre-treated, HSV-1 infected HEp-2 cells; type: cell-based; settings: 100 μM, 24 hours pre-treatment, 24 h post infection
T1 construct: endogenous in cells; host or cells: HEp-2 cells (ATCC), infected with HSV-1
Description: as §1, §2

COc1ccc(-c2nnc(SCC(=O)O)n2N)cc1 [SD-29-12]
Plaque formation unit (pfu) ([1]; 0 hpl): 0 ± 0 PFU/mL | Plaque formation unit (pfu) ([1]; 6 hpl): 3.8 ± 0.07 × 10^2 PFU/mL | Plaque formation unit (pfu) ([1]; 12 hpl): 3.6 ± 0.04 × 10^3 PFU/mL | Plaque formation unit (pfu) ([1]; 24 hpl): 2.6 ± 0.03 × 10^6 PFU/mL | HEp-2 Cell viability, Mean (percentage survival) ([2]; 10 μM): 92.7% | HEp-2 Cell viability, Mean (percentage survival) ([2]; 100 μM): 97.7%

Nn1c(S)nnc1-c1cc(Cl)cc(Cl)c1 [SD-29-14]
abundance of human ANXA2 ([3]; LC-MS, SD29-14 treatment): increased abundance | Annexin A2 fragment abundance ([3]; fragment DALNIETAIK, 10 uM): 317727.9 | Annexin A2 fragment abundance ([3]; fragment DALNIETAIK, 100 uM): 130507.6 | Abundance ratio 1 ([3]; fragment DALNIETAIK): 7.765 | Abundance ratio 2 ([3]; fragment DALNIETAIK): 3.19 | Annexin A2 fragment abundance ([3]; fragment GVDEVTIVNILTNR, 10 uM): 133381 | Annexin A2 fragment abundance ([3]; fragment GVDEVTIVNILTNR, 100 uM): 9540 | Abundance ratio 1 ([3]; fragment GVDEVTIVNILTNR): >100 | Abundance ratio 2 ([3]; fragment GVDEVTIVNILTNR): >100 | Annexin A2 fragment abundance ([3]; fragment TNQELQEINR, 10 uM): 462054 | Annexin A2 fragment abundance ([3]; fragment TNQELQEINR, 100 uM): 190293 | Abundance ratio 1 ([3]; fragment TNQELQEINR): 10.502 | Abundance ratio 2 ([3]; fragment TNQELQEINR): 4.325 | HEp-2 Cell viability, Mean (percentage survival) ([2]; 10 μM): 97.5% | HEp-2 Cell viability, Mean (percentage survival) ([2]; 100 μM): 93.7% | cytopathic effect caused by HSV-1 [4]: do not show the cytopathic effect | expression of ICP0 protein (immunofluorescence) [5]: effectively eliminated any expression of ICP0 protein | ABA-induced RACK1A Y248 phosphorylation [6]: prevented the ABA-induced Y248 phosphorylation | total cell counts ([7]; 10 μM): 4.69e+06 mL⁻¹ | total cell counts ([7]; 100 μM): 5.36e+06 mL⁻¹

Nn1c(S)nnc1-c1ccc(F)cc1 [SD-29]
Plaque formation unit (pfu) ([1]; 0 hpl): 0 ± 0 PFU/mL | Plaque formation unit (pfu) ([1]; 6 hpl): 0 ± 0 PFU/mL | HEp-2 Cell viability, Mean (percentage survival) ([2]; 10 μM): 94.0% | HEp-2 Cell viability, Mean (percentage survival) ([2]; 100 μM): 92.7% | RACK1 protein expression under salt stress [8]: inhibited RACK1 protein expression | ABA-induced RACK1A Y248 phosphorylation [6]: prevented the ABA-induced Y248 phosphorylation | viral protein levels (ICP0, ICP8, gD) [9]: lower than that of DMSO- or SD-29-12-treated HEp-2 cells | production of RACK1 [10]: reduced the production of RACK1
